Peptide text beside a SMILES is read from it. * marks the point of attachment. Cbz = O=C(OCc1ccccc1)*; CH2F = FC*
Tests used:
[1] = test system: HCT116O cells; test: MTT cytotoxicity assay; format: cell-based, human; conditions: for effect of PARP inhibitor on the selective MMR-dependent effects of the rhodium compound: with 20 μM [Rh(HDPA)2chrysi]^3+, HCT116N versus HCT116O
Procedure: Cytotoxicity assays were performed as described in Mosmann, 1983, J. Immunol. Methods, 65, 55-63, the entire contents of which is incorporated herein by reference. HCT116N and HCT116O cells were plated in 96-well plates at 50,000 cells/well and incubated with rhodium for the durations specified. After incubation with the indicated rhodium complexes, cells were labeled with MTT for 4 hours at 37° C. under 5% CO2 and humidified atmosphere. The resulting formazan crystals were dissolved with solubilizing reagent purchased from Roche according to the manufacturer's instructions. The dissolved formazan was quantified as the absorbance at 570 nm minus the background absorbance at 690 nm. Percent viability was determined as the ratio of the amount of formazan in the treated cells to that of the untreated cells.
In order to elucidate the mechanism of action for the cytotoxicity caused by a metalloinsertor complex of Formula I, the MTT cytotoxicity assay was repeated in the absence and presence of the pan-caspase inhibitor Z-VAD-FMK. This inhibitor works by irreversibly binding to the active site of caspases which participate in the apoptotic pathway. […] The HCT116N and HCT116O cell lines were treated with 0-30 μM of the [Rh(HDPA)2chrysi]^3+ complex for 24-72 hours. […]
In order to determine the mechanism of action for cytotoxicity caused by a metalloinsertor complex of Formula I, the MTT cytotoxicity assay was repeated in conjunction with a panel of poly-ADP ribose polymerase (PARP) inhibitors: DPQ, 3-AB, 4-AN, and ABT-888, as described in Costantino et al., 2001, J. Med. Chem., 44, 3786-3794; Purnell et al., 1980, Biochem. J. 185, 775-777; Banasik et al., 1992, J. Biol. Chem. 267, 1569-1575; and Donawho et al., 2007, Clin. Cancer Res., 13, 2728-2737, the entire contents of all of which are incorporated herein by reference. The HCT116N and HCT116O cell lines were treated with 0 or 20 μM of the [Rh(HDPA)2chrysi]^3+ complex for 72 hours, with or without one of the four inhibitors. The inhibitor 3,4-Dihydro-5[4-(1-piperindinyl)butoxy]-1(2H)-isoquinoline (DPQ) was added to a final concentration of 0, 25, or 50 μM; the inhibitor 3-aminobenzamide (3-AB) was added to a final concentration of 0, 2, or 3 mM; the inhibitor 4-amino-1,8-napthalimide (4-AN) was added to a final concentration of 0, 10, or 20 μM; and the inhibitor 2-((R)-2-Methylpyrrolidin-2-yl)-1H-benzimidazole-4-carboxamide (ABT-888) was added to a final concentration of 0, 5, or 10 μM. […] For example, in the case of the compound DPQ, this difference was 43±2.7% without inhibitor and 0.6±3.0% with inhibitor.

[2] = test system: HCT116O cells; test: ICP-MS assay, nuclear and mitochondrial rhodium accumulation; format: cell-based, human; conditions: 10 uM, 24 h, comparison in words
Procedure: To assay the subcellular localization of the rhodium complexes, an inductively coupled plasma mass spectrometry (ICP-MS) assay was used to quantify the uptake of the complexes in both whole cell extracts and nuclear and mitochondrial fractions.
Mitochondrial Rhodium Accumulation. With reference to FIG. 31B, HCT116O cells were plated in 75 cm^2 culture flasks at 2.0×10^7 cells/plate and incubated at 37° C., 5% CO2 for 24 h. Rhodium was added to 10 uM and cells were grown for an additional 24 h. The cells were then harvested by trypsinization and centrifuged for 5 min at 1,200 rpm. The supernatants were decanted, and the cell pellets were resuspended in 1 ml cold PBS (pH 7.2). The cells were centrifuged again for 5 min at 1,200 rpm. The supernatants were discarded, and the resultant pellets were resuspended in 0.5 ml mitochondrial extraction buffer (200 mM mannitol, 68 mM sucrose, 50 mM Pipes, 50 mM KCl, 5 mM EGTA, 2 mM MgCl2; 1 mM DTT and protease inhibitors were added right before use). The samples were incubated on ice for 20 min, and the suspensions were homogenized via passage through a needle and syringe (35×). The homogenized cells were then centrifuged for 5 min at 750 rpm. The supernatants were collected and spun again at 14,000 g for 10 min. The supernatants were decanted, and the resulting mitochondrial pellet was suspended in 0.8 ml H2O via probe sonication. […]

[3] = test system: HCT116O cells; conditions: HCT116N and HCT116O; called known; cited from earlier work

| Molecule | effect of PARP inhibitor on the selective MMR-dependent effects of the rhodium compound ([1]; MTT, 72 hours) | selective cytotoxicity, MMR-deficient HCT116O versus MMR-proficient HCT116N cells [1] | also measured |
| --- | --- | --- | --- |
| NC(=O)c1cccc(N)c1 [3-AB, 3-aminobenzamide, reference compound] | completely abolished the selective MMR-dependent effects | – | – |
| Nc1ccc2c3c(cccc13)C(=O)NC2=O [4-AN, 4-amino-1,8-napthalimide, reference compound] | completely abolished the selective MMR-dependent effects | – | – |
| C[C@]1(c2nc3c(C(N)=O)cccc3[nH]2)CCCN1 [ABT-888, 2-((R)-2-Methylpyrrolidin-2-yl)-1H-benzimidazole-4-carboxamide, reference compound] | completely abolished the selective MMR-dependent effects | – | – |
| O=C1NCCc2c(OCCCCN3CCCCC3)cccc21 [DPQ, 3,4-Dihydro-5[4-(1-piperindinyl)butoxy]-1(2H)-isoquinoline, reference compound] | completely abolished the selective MMR-dependent effects | – | – |
| COC(=O)C[C@H](NC(=O)[C@H](C)NC(=O)[C@@H](NC(=O)OCc1ccccc1)C(C)C)C(=O)CF [Z-VAD-FMK, reference compound] (Cbz-Val-Ala-Asp(OMe)-CH2F) | – | – | protection from rhodium by the caspase inhibitor at 20 M (so in the source) ([1]; MTT, HCT116N and HCT116O, with [Rh(HDPA)2chrysi]^3+): no protection from rhodium; protection from rhodium by the caspase inhibitor at 40 μM ([1]; MTT, HCT116O, with [Rh(HDPA)2chrysi]^3+): some protection from rhodium |
| [Rh(DPAE)2chrysi]^3+ | – | increased cytotoxicity to the MMR-deficient HCT116O cells | incubation time at which cell selective activity is exhibited ([1]; HCT116O versus HCT116N): ≤ 6 h; share of cellular rhodium complex that is nuclear [2]: greater percentage |
| [Rh(MeDPA)2chrysi]Cl3 [[Rh(MeDPA)2chrysi]^3+] | – | differential toxicity against the HCT116O cell line comparable to that of [Rh(HDPA)2chrysi]^3+ | toxicity in MMR-deficient HCT116O versus HCT116N cells at 48 hours ([1]; MTT, 48 hours): enhance toxicity in the MMR-deficient HCT116O cells |
| [Rh(NH3)4phzi]Cl3 [[Rh(NH3)4phzi]^3+] | – | selective cytotoxicities towards the MMR-deficient HCT116O cells | – |
| [Rh(PrDPA)2chrysi]^3+ | – | – | selectivity of inhibitory effects after 72 hours ([1]; MTT, HCT116N and HCT116O, 72 hours): non-selective inhibitory effects; mitochondrial rhodium content [2]: greater than that of cells incubated with [Rh(DPAE)2(chrysi)]^3+ |
| [Rh(bpy)2chrysi]^3+ | – | – | cytotoxicity (known property) [3]: non-toxic |
| [Rh(chrysi)(phen)(DPE)]Cl3 [[Rh(chrysi)(phen)(DPE)]^2+] | – | selective cytotoxicities towards the MMR-deficient HCT116O cells | – |
| [Rh(chrysi)(phen)(PPE)]^2+ | – | selective cytotoxicities towards the MMR-deficient HCT116O cells | – |
| [Rh(chrysi)(phen)(PyPrO)]^2+ | – | selective cytotoxicities towards the MMR-deficient HCT116O cells | – |

Reference: patent US9051345B2, “Metalloinsertor complexes targeted to DNA mismatches” (CALIFORNIA INSTITUTE OF TECHNOLOGY, priority 2011, dated 2015)
